Broadly, the EC50 is the concentration at which the effect is half-maximal. By solubility is commonly meant the concentration that dissolves in the medium under given conditions.

Data set [1] has as its target T1, human GIP receptor (hGIP R) (Homo sapiens, UniProt P48546).
T1 construct: expressed in transfected cells; host or cells: HEK-293
T1 sequence (P48546 22-466): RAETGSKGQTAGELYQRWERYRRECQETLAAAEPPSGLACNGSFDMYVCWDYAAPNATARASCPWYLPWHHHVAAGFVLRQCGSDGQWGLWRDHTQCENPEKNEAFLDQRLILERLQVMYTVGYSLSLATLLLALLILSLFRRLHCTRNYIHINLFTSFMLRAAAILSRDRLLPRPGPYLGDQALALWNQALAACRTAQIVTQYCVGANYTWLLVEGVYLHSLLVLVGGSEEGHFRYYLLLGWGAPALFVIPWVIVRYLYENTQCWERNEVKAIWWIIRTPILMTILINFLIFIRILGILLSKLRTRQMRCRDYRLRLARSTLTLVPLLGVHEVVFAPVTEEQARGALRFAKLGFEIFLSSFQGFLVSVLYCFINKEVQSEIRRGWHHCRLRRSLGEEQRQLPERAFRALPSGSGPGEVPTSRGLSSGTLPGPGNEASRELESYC
Description: cAMP response of HEK-293 cells stably expressing human GIP receptor (HTRF). The format is cell-based. On the procedure:
(§1) cAMP content of cells was determined using a kit from Cisbio Corp. (cat. no. 62AM4PEC) based on HTRF (Homogenous Time Resolved Fluorescence). For preparation, cells were split into T175 culture flasks and grown overnight to near confluency in medium (DMEM/10% FBS). Medium was then removed and cells washed with PBS lacking calcium and magnesium, followed by proteinase treatment with accutase (Sigma-Aldrich cat. no. A6964). Detached cells were washed and resuspended in assay buffer (1×HBSS; 20 mM HEPES, 0.1% BSA, 2 mM IBMX) and cellular density determined. They were then diluted to 400000 cells/ml and 25 μl-aliquots dispensed into the wells of 96-well plates. For measurement, 25 μl of test compound in assay buffer was added to the wells, followed by incubation for 30 minutes at room temperature.
A general note: In TR-FRET formats the signal depends on donor and acceptor labels being close together.

In data set [2] the target is T2, human GLP-1 receptor (hGLP-1 R) (Homo sapiens, UniProt P43220).
T2 construct: expressed in transfected cells; host or cells: HEK-293
Kind of data set: cAMP response of HEK-293 cells stably expressing human GLP-1 receptor (HTRF). Conditions: Table 7, cAMP formation. It counts as cell-based. On the procedure: as §1

The target of data set [3] is T3, human glucagon receptor (hGLUC R) (Homo sapiens, UniProt P47871).
T3 construct: expressed in transfected cells; host or cells: HEK-293
Kind of data set: cAMP response of HEK-293 cells stably expressing human glucagon receptor (HTRF). It counts as cell-based. The conditions noted are these: Table 7, cAMP formation. On the procedure: as §1

The nature of data set [4]: Solubility testing in buffer systems (HPLC-UV). The conditions noted are these: buffer system, target concentration 1.0 mg/mL. It counts as physicochemical.
Data set [5] has as its system non-fasted female diabetic dbdb-mice. Description: Glucose lowering in non-fasted female diabetic dbdb-mice. It counts as in vivo. Conditions: 3 μg/kg s.c. The source says: Female diabetic dbdb-mice of mean non-fasted glucose value of 20-22 mmol/l and a body weight of 42 g+/−0.6 g (SEM) were used. Mice were individually marked and were adapted to housing conditions for at least one week.
3-5 days prior to study start mice were assigned to groups and cages (4 mice per cage, 8 per group) according to their non-fasted glucose values to ensure even distribution of lower and higher values between groups (stratification). On the study day, mice were weighed and dosed (t=0). Immediately prior to compound administration feed was removed while water remained available, and a first blood sample at a tail incision was drawn (baseline). Further blood samples were drawn at the tail incision at 30, 60, 90, 120, 240, 360, and 480 min.
Statistical analyses are performed with Everstat Version 6.0 based on SAS by 2-way-ANOVA on repeated measures, followed by Dunnett's post-hoc test against vehicle-control. Differences are considered statistically significant at the p<0.05 level.
Female dbdb-mice, received 3 μg/kg of SEQ ID NO: 13 or phosphate buffered saline (vehicle control) subcutaneously, at time 0 min.

A short description of data set [6]: Chemical stability in solution, 7 days at 25° C. (% remaining peptide). It counts as physicochemical. The conditions noted are these: % remaining peptide after 7 days at 25° C., pH 7.4. From the text: The chemical stability is expressed as “% remaining peptide”.
In data set [7] the target is human GLP-1 receptor (human) (UniProt P43220). Kind of data set: cell-based or functional assay.
The target of data set [8] is T4, human GIP receptor (human) (UniProt P48546).
T4 sequence (looked up): T1 sequence (P48546 22-466)
Kind of data set: cell-based or functional assay.

≈ marks a conversion by molar mass, not a printed value. Read-outs that look alike come from different tables or passages of the source. *1 amine or outer side, *2 acyl side, *3 side chain or, on linkers, in order; H or OH if unused. Where a SMILES comes first, the peptide text is derived from it. Side-chain parts run from the residue outwards. [ ]: non-standard residue; d: D form. The star is where a group is joined. γGlu = O=C(O)[C@H](CCC(=O)[*:2])N[*:1]; Stearoyl = CCCCCCCCCCCCCCCCCC(=O)*; Aib = CC(C)(N)C(=O)O

T2 sequence (P43220 24-463): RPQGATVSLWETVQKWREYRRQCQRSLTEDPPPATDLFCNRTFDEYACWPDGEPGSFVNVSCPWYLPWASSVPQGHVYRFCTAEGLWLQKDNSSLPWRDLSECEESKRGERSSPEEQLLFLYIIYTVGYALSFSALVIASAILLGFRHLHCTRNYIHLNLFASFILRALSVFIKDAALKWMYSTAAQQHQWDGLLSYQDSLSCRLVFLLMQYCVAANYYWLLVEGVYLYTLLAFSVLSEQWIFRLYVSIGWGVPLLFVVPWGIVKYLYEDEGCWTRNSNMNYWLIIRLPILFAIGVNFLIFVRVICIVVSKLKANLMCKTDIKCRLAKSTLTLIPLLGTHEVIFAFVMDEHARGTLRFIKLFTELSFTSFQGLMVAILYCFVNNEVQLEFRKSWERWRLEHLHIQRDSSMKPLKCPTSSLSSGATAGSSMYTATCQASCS
T3 sequence (P47871 26-477): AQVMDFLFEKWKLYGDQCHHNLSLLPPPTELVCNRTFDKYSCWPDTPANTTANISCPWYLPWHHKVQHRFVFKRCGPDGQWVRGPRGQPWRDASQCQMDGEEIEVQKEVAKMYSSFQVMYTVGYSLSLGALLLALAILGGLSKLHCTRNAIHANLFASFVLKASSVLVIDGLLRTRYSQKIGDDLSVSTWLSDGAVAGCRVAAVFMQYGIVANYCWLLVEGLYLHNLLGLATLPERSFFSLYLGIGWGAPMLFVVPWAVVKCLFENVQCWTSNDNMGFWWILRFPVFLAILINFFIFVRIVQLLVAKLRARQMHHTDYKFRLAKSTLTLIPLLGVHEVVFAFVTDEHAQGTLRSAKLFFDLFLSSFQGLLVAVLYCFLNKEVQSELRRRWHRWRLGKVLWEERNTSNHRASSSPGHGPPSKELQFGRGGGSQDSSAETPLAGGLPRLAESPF
Chain of human GLP-1 receptor (human) (P43220 24-463): as the sequence (P43220 24-463) above

With `CCCCCCCCCCCCCCCCCC(=O)N[C@@H](CCC(=O)NCCCC[C@H](NC(=O)[C@H](CCC(N)=O)NC(=O)[C@@H](NC(=O)[C@H](CO)NC(=O)[C@H](CC(C)C)NC(=O)[C@H](CC(=O)O)NC(=O)[C@H](CO)NC(=O)[C@@H](NC(=O)[C@H](Cc1ccccc1)NC(=O)[C@@H](NC(=O)CNC(=O)[C@H](CCC(=O)O)NC(=O)C(C)(C)NC(=O)[C@@H](N)Cc1ccc(O)cc1)[C@@H](C)O)[C@@H](C)O)[C@@H](C)CC)C(=O)N[C@@H](CCC(=O)O)C(=O)N[C@@H](CCC(=O)O)C(=O)N[C@@H](CCC(=O)O)C(=O)N[C@@H](C)C(=O)N[C@H](C(=O)N[C@@H](CCCNC(=N)N)C(=O)N[C@@H](CC(C)C)C(=O)N[C@@H](Cc1ccccc1)C(=O)N[C@H](C(=O)N[C@@H](CCC(=O)O)C(=O)N[C@@H](Cc1c[nH]c2ccccc12)C(=O)N[C@@H](CC(C)C)C(=O)N[C@@H](CCCCN)C(=O)NC(C)(C)C(=O)NCC(=O)NCC(=O)N1CCC[C@H]1C(=O)N[C@@H](CO)C(=O)N[C@@H](CO)C(=O)NCC(=O)N[C@@H](C)C(=O)N1CCC[C@H]1C(=O)N1CCC[C@H]1C(=O)N1CCC[C@H]1C(=O)N[C@@H](CO)C(N)=O)[C@@H](C)CC)C(C)C)C(=O)O` [SEQ ID NO: 9, Y-Aib-E-G-T-F-T-S-D-L-S-I-Q-K(γE-x70)-E-E-E-A-V-R-L-F-I-E-W-L-K-Aib-G-G-P-S-S-G-A-P-P-P-S-NH2], the EC50 in data set [1] turned out to be 0.0146 nM; in data set [2] (EC50 hGLP-1 R) it was 0.0267 nM; in data set [3] (EC50 hGLUC R), 164 nM.

For the molecule `CCCCCCCCCCCCCCCCCC(=O)N[C@@H](CCC(=O)NCCCC[C@H](NC(=O)[C@H](CCC(N)=O)NC(=O)[C@@H](NC(=O)[C@H](CO)NC(=O)[C@H](CC(C)C)NC(=O)[C@H](CC(=O)O)NC(=O)[C@H](CO)NC(=O)[C@@H](NC(=O)[C@H](Cc1ccccc1)NC(=O)[C@@H](NC(=O)CNC(=O)[C@H](CCC(=O)O)NC(=O)C(C)(C)NC(=O)[C@@H](N)Cc1ccc(O)cc1)[C@@H](C)O)[C@@H](C)O)[C@@H](C)CC)C(=O)N[C@@H](CCC(=O)O)C(=O)N[C@@H](CCC(=O)O)C(=O)N[C@@H](CCC(=O)O)C(=O)N[C@@H](C)C(=O)N[C@H](C(=O)N[C@@H](CCCNC(=N)N)C(=O)N[C@@H](CC(C)C)C(=O)N[C@@H](Cc1ccccc1)C(=O)N[C@H](C(=O)N[C@@H](CCC(=O)O)C(=O)N[C@@H](Cc1c[nH]c2ccccc12)C(=O)N[C@@H](CC(C)C)C(=O)N[C@@H](CCCCN)C(=O)NC(C)(C)C(=O)NCC(=O)NCC(=O)N1CCC[C@H]1C(=O)N[C@@H](CO)C(=O)N[C@@H](CO)C(=O)NCC(=O)N[C@@H](C)C(=O)N1CCC[C@H]1C(=O)N1CCC[C@H]1C(=O)N1CCC[C@H]1C(=O)N[C@@H](CO)C(N)=O)[C@@H](C)CC)C(C)C)C(=O)O` [SEQ ID NO: 12, Y-Aib-E-G-T-F-T-S-D-L-S-I-Q-K(γE-x70)-E-E-E-A-V-R-L-F-I-E-W-L-K-Aib-G-G-P-S-S-G-A-P-P-P-S-NH2], the half-maximal effective concentration (EC50) in data set [2] (EC50 hGLP-1 R) is 0.0119 nM; in data set [3] (EC50 hGLUC R), 95.9 nM.

As for `CCCCCCCCCCCCCCCCCC(=O)N[C@@H](CCC(=O)NCCCC[C@H](NC(=O)[C@H](CCC(N)=O)NC(=O)[C@@H](NC(=O)[C@H](CO)NC(=O)[C@H](CC(C)C)NC(=O)[C@H](CC(=O)O)NC(=O)[C@H](CO)NC(=O)[C@@H](NC(=O)[C@H](Cc1ccccc1)NC(=O)[C@@H](NC(=O)CNC(=O)[C@H](CCC(=O)O)NC(=O)C(C)(C)NC(=O)[C@@H](N)Cc1ccc(O)cc1)[C@@H](C)O)[C@@H](C)O)[C@@H](C)CC)C(=O)N[C@@H](CCC(=O)O)C(=O)N[C@@H](CCCCN)C(=O)N[C@@H](CCC(=O)O)C(=O)N[C@@H](C)C(=O)N[C@H](C(=O)N[C@@H](CCCNC(=N)N)C(=O)N[C@@H](CC(C)C)C(=O)N[C@@H](Cc1ccccc1)C(=O)N[C@H](C(=O)N[C@@H](CCC(=O)O)C(=O)N[C@@H](Cc1c[nH]c2ccccc12)C(=O)N[C@@H](CC(C)C)C(=O)N[C@@H](CCCCN)C(=O)N[C@@H](C)C(=O)NCC(=O)NCC(=O)N1CCC[C@H]1C(=O)N[C@@H](CO)C(=O)N[C@@H](CO)C(=O)NCC(=O)N[C@@H](C)C(=O)N1CCC[C@H]1C(=O)N1CCC[C@H]1C(=O)N1CCC[C@H]1C(=O)N[C@@H](CO)C(N)=O)[C@@H](C)CC)C(C)C)C(=O)O` [SEQ ID NO: 13, Y-Aib-E-G-T-F-T-S-D-L-S-I-Q-K(γE-x70)-EKEAVRLFIEWLKAGGPSSGAPPPS-NH2] (H-Y[Aib]EGTFTSDLSIQK([γGlu-Stearoyl])EKEAVRLFIEWLKAGGPSSGAPPPS-NH2), the concentration for a half-maximal effect (EC50) in data set [1] (Table 7, cAMP formation, read-out: EC50 hGIP R) is 0.0168 nM; in data set [2] (read-out: EC50 hGLP-1 R), 0.0212 nM; in data set [3] (read-out: EC50 hGLUC R), 200 nM. Further, the solubility at 2 h in data set [4] (pH 4.5, read-out: Solubility (pH 4.5)) worked out at 688 µg/mL (≈ 150 µM); in data set [4] (pH 7.4, read-out: Solubility (pH 7.4)), 824 µg/mL (≈ 180 µM). Moreover, the “maximal effect, glucose reduction” value in data set [5] (at 240 min, kept to 480 min, baseline 20-22 mmol/l) was about 12 mmol/L. The “reduction of glucose compared to vehicle control” value in data set [5] (from t=90 min until end of observation, p<0.05) is on record as “statistical significant reduction of glucose”. In addition, the “Stability (pH 7.4)” value in data set [6] was found to be 84.0%.

As to Tyr(1)Ile(12)-exendin-4 (peptide), the EC50 hGLP-1 R [pM] (formed cAMP) in data set [7] is 1.3 pM. The molecule also showed an EC50 hGIP R [pM] (formed cAMP) in data set [8] of 93.9 pM.
